Data published in patent US20250381179A1, “CHROMAN-BASED COMPOUNDS FOR TREATING CANCER” (priority 2024, published 2025).

Legend:
CYP2C8 = molecular target: T1, CYP2C8 (Homo sapiens, UniProt P10632); assay: CYP2C8 direct inhibition; assay type: in vitro ADME; conditions: highest concentration evaluated (10 μM)
T1 sequence (P10632 1-490): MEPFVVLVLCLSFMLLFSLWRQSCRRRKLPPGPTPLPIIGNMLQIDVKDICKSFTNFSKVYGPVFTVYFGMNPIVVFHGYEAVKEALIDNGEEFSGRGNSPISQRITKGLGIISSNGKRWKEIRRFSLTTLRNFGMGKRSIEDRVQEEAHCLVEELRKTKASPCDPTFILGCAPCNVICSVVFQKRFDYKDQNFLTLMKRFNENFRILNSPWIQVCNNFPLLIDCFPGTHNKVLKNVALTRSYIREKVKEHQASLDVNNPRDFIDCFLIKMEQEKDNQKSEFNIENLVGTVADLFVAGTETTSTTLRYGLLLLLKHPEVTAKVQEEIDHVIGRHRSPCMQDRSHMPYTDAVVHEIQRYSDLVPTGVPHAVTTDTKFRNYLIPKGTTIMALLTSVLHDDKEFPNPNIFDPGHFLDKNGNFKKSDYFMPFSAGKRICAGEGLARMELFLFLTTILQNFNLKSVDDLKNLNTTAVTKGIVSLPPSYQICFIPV

CYP3A = CYP3A direct inhibition; assay type: in vitro ADME; conditions: highest concentration evaluated (10 μM)
[1] = test system: ER+/HER2− locally advanced or metastatic breast cancer; assay: Phase 1 study: anti-tumor activity (RECIST v1.1; ORR, CBR, best objective response); assay type: in vivo, human; conditions: for ORR (CR + PR) - n (%): RECIST 1.1, Investigator assessment; for Response - n (%): RECIST 1.1, efficacy evaluable set; for Confirmed Complete Response (cCR) / Confirmed Partial Response (cPR): confirmed by second assessment at least 4 weeks after first
Protocol: The study employed an open-label, 3+3 design, with the option of adding backfill patients to each cohort cleared and deemed safe. […] Compound (1-g) was administered orally once daily in 28-day cycles. Tumor responses were assessed every 2 cycles using RECIST v1.1 criteria. Therefore, the initial dose of 100 mg QD was chosen to limit the number of patients exposed to lower efficacious dose levels, while adding an additional 2.5-fold safety margin. The study also involves an ongoing dose escalation study where participants receive 100 mg, 200 mg, 300 mg, 400 mg, and 600 mg once daily (QD) dose levels.
Response and progression will be evaluated in this study using RECIST Version 1.1. Lesions are either measurable or non-measurable according to the criteria. The actual number of dose levels to be explored in this study depended on determination of the non-tolerable dose based on DLTs. Other safety data, as well as PK profiles observed during the conduct of the study and any trends for anti-tumor activity were collected. Treatment cycles occurred consecutively. Evaluation of a cohort of at least 3 patients completing 1 cycle of treatment (28 days) is required prior to proceeding to the next dose level. In addition, selected dose levels may be expanded to approximately 20 patients (per dose level).
All efficacy analyses were performed using the Efficacy Evaluable Analysis Set. Objective Response Rate (ORR), defined as the proportion of patients who have measurable disease at baseline with confirmed […] or partial response (PR) (i.e., 2 CRs or PRs at least 4 weeks apart) according to the RECIST Version 1.1 criteria. Clinical Benefit Rate (CBR), defined as the proportion of patients with CR, PR, or stable disease (SD) (where SD is ≥24 weeks) according to the RECIST Version 1.1 criteria. Duration of Response (DOR), defined as the time between first documentation of a response (CR or PR) and first evidence of PD according to RECIST v1.1 or death due to any cause. […] Progression Free Survival (PFS), defined as the time from the first day of study drug administration (Day 1) until disease progression as defined by the RECIST Version 1.1 criteria, or death on study, whichever occurs first. Patients who are alive and free from disease progression were censored at the date of last tumor assessment. For ORR and CBR, estimates and the associated 95% CIs (based on the Clopper-Pearson method), at each dose level were calculated. The absolute and relative difference in ORR and CBR between the two treatment groups was presented. For PFS, Kaplan-Meier curves were generated and the median time to event, and the associated 95% CIs were provided. The hazard ratio and the 95% CIs for these endpoints between the two treatment groups was calculated.
The overall response is evaluated according to the criteria in Table 4.
The objective response rate (ORR) and the clinical benefit rate (CBR) were assessed for the participants. The clinical benefit rate (CBR), as used herein, is defined as confirmed complete response or partial response at any time and stable disease over ≥24 weeks. Evaluable participants need to complete an adequate post-treatment scan. Participants with SD who remain on study <6 months are not included in the denominator.

CYP2C9 = CYP2C9 (Homo sapiens, UniProt P11712)
in vivo = conditions: female, rat, po

Chain of CYP2C9 (P11712 whole entry): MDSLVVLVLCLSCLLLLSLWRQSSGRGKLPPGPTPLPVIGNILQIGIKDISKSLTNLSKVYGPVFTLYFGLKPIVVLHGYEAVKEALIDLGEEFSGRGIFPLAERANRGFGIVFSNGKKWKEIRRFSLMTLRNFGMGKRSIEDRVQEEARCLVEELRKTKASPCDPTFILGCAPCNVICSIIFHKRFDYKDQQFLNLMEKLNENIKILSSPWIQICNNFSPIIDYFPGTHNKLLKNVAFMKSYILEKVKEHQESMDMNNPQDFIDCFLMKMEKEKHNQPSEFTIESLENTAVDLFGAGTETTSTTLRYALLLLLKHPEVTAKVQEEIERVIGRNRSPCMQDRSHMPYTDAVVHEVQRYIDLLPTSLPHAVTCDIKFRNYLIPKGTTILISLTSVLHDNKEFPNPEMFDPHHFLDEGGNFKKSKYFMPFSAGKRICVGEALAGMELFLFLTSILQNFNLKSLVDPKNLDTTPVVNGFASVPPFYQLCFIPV

Question: Which results are given for `O=C1CC[C@H](N2Cc3cc(N4CCN(CC5CCN(c6ccc([C@@H]7c8ccc(O)cc8OC[C@@H]7c7ccccc7)cc6F)CC5)CC4)ccc3C2=O)C(=O)N1` [compound (1-g), (S)-3-(5-(4-((1-(2-fluoro-4-((3S,4R)-7-hydroxy-3-phenylchroman-4-yl)phenyl)piperidin-4-yl)methyl)piperazin-1-yl)-1-oxoisoindolin-2-yl)piperidine-2,6-dione]?
Answer: CYP2C8 direct inhibition (CYP2C8): did not directly inhibit; CYP3A direct inhibition (CYP3A): did not directly inhibit; Non-Response - n (%) ([1]; Cohort 1 (100 mg QD), N = 2): 1 (50.0) n (%); Not Applicable (NA) ([1]; Cohort 1 (100 mg QD), N = 2): 0 n (%); Not Evaluable (NE) ([1]; Cohort 1 (100 mg QD), N = 2): 0 n (%); Progressive Disease (PD) ([1]; Cohort 1 (100 mg QD), N = 2): 0 n (%); Unconfirmed Complete Response (uCR) ([1]; Cohort 1 (100 mg QD), N = 2): 0 n (%); Unconfirmed Partial Response (uPR) ([1]; Cohort 1 (100 mg QD), N = 2): 0 n (%); ORR (CR + PR) - n (%) ([1]; Cohort 1 (100 mg QD), N = 2): 1 (50.0) n (%); Response - n (%) ([1]; Cohort 1 (100 mg QD), N = 2): 1 (50.0) n (%); Confirmed Complete Response (cCR) ([1]; Cohort 1 (100 mg QD), N = 2): 0 n (%); Confirmed Partial Response (cPR) ([1]; Cohort 1 (100 mg QD), N = 2): 1 (50.0) n (%); Non-Response - n (%) ([1]; Cohort 2 (200 mg QD), N = 8): 6 (75.0) n (%); Not Applicable (NA) ([1]; Cohort 2 (200 mg QD), N = 8): 0 n (%); Not Evaluable (NE) ([1]; Cohort 2 (200 mg QD), N = 8): 1 (12.5) n (%); Progressive Disease (PD) ([1]; Cohort 2 (200 mg QD), N = 8): 2 (25.0) n (%); Unconfirmed Complete Response (uCR) ([1]; Cohort 2 (200 mg QD), N = 8): 0 n (%); Unconfirmed Partial Response (uPR) ([1]; Cohort 2 (200 mg QD), N = 8): 0 n (%); ORR (CR + PR) - n (%) ([1]; Cohort 2 (200 mg QD), N = 8): 2 (25.0) n (%); Response - n (%) ([1]; Cohort 2 (200 mg QD), N = 8): 2 (25.0) n (%); Confirmed Complete Response (cCR) ([1]; Cohort 2 (200 mg QD), N = 8): 0 n (%); Confirmed Partial Response (cPR) ([1]; Cohort 2 (200 mg QD), N = 8): 2 (25.0) n (%); Non-Response - n (%) ([1]; Cohort 3 (300 mg QD), N = 9): 8 (88.9) n (%); Not Applicable (NA) ([1]; Cohort 3 (300 mg QD), N = 9): 0 n (%); Not Evaluable (NE) ([1]; Cohort 3 (300 mg QD), N = 9): 0 n (%); Progressive Disease (PD) ([1]; Cohort 3 (300 mg QD), N = 9): 4 (44.4) n (%); Unconfirmed Complete Response (uCR) ([1]; Cohort 3 (300 mg QD), N = 9): 0 n (%); Unconfirmed Partial Response (uPR) ([1]; Cohort 3 (300 mg QD), N = 9): 0 n (%); ORR (CR + PR) - n (%) ([1]; Cohort 3 (300 mg QD), N = 9): 1 (11.1) n (%); Response - n (%) ([1]; Cohort 3 (300 mg QD), N = 9): 1 (11.1) n (%); Confirmed Complete Response (cCR) ([1]; Cohort 3 (300 mg QD), N = 9): 0 n (%); Confirmed Partial Response (cPR) ([1]; Cohort 3 (300 mg QD), N = 9): 1 (11.1) n (%); Non-Response - n (%) ([1]; Cohort 4 (400 mg QD), N = 4): 4 (100) n (%); Not Applicable (NA) ([1]; Cohort 4 (400 mg QD), N = 4): 0 n (%); Not Evaluable (NE) ([1]; Cohort 4 (400 mg QD), N = 4): 0 n (%); Progressive Disease (PD) ([1]; Cohort 4 (400 mg QD), N = 4): 2 (50.0) n (%); Unconfirmed Complete Response (uCR) ([1]; Cohort 4 (400 mg QD), N = 4): 0 n (%); Unconfirmed Partial Response (uPR) ([1]; Cohort 4 (400 mg QD), N = 4): 0 n (%); ORR (CR + PR) - n (%) ([1]; Cohort 4 (400 mg QD), N = 4): 0 n (%); Response - n (%) ([1]; Cohort 4 (400 mg QD), N = 4): 0 n (%); Confirmed Complete Response (cCR) ([1]; Cohort 4 (400 mg QD), N = 4): 0 n (%); Confirmed Partial Response (cPR) ([1]; Cohort 4 (400 mg QD), N = 4): 0 n (%); Non-Response - n (%) ([1]; Cohort 5 (600 mg QD), N = 3): 3 (100) n (%); Not Applicable (NA) ([1]; Cohort 5 (600 mg QD), N = 3): 0 n (%); Not Evaluable (NE) ([1]; Cohort 5 (600 mg QD), N = 3): 0 n (%); Progressive Disease (PD) ([1]; Cohort 5 (600 mg QD), N = 3): 0 n (%); Unconfirmed Complete Response (uCR) ([1]; Cohort 5 (600 mg QD), N = 3): 0 n (%); Unconfirmed Partial Response (uPR) ([1]; Cohort 5 (600 mg QD), N = 3): 0 n (%); Response - n (%) ([1]; Cohort 5 (600 mg QD), N = 3): 0 n (%); Confirmed Complete Response (cCR) ([1]; Cohort 5 (600 mg QD), N = 3): 0 n (%); Confirmed Partial Response (cPR) ([1]; Cohort 5 (600 mg QD), N = 3): 0 n (%); Non-Response - n (%) ([1]; Overall, N = 26): 22 (84.6) n (%); Not Applicable (NA) ([1]; Overall, N = 26): 0 n (%); Not Evaluable (NE) ([1]; Overall, N = 26): 1 (3.8) n (%); Progressive Disease (PD) ([1]; Overall, N = 26): 8 (30.8) n (%); Unconfirmed Complete Response (uCR) ([1]; Overall, N = 26): 0 n (%); Unconfirmed Partial Response (uPR) ([1]; Overall, N = 26): 0 n (%); ORR (CR + PR) - n (%) ([1]; Overall, N = 26): 4 (15.4) n (%); Response - n (%) ([1]; Overall, N = 26): 4 (15.4) n (%); Confirmed Complete Response (cCR) ([1]; Overall, N = 26): 0 n (%); Confirmed Partial Response (cPR) ([1]; Overall, N = 26): 4 (15.4) n (%); CYP2C9 time-dependent inhibition (CYP2C9): without showing time-dependent inhibition; AUC (in vivo; AUC in the evaluated tissues (compared with plasma)): > 2800 ng·h/mL; AUC (in vivo; plasma AUC): 2800 ng·h/mL
